Where two headings read alike, the source gives them in different places. Peptide text beside a SMILES is read from it. A value given as a limit tells only on which side of the number the result lay.

Data set [1] relates to Staphylococcus aureus 68 (HER1049). Format: cell-based. Here is the method:
(§1) To further validate the approach, a number of antimicrobial peptides identified during the in silico validation were synthesized. Their antimicrobial activity against Escherichia coli and Staphylococcus aureus were measured in a growth inhibitory assay. Details on the synthesis and assay are given in the supplementary material (see S1 Text). The peptides were obtained using h CAMP, the same predictor used during the previous validation. […]
(§2) Escherichia coli K12 MG1655 and Staphylococcus aureus 68 (HER1049) were obtained from the F´elix d’H´erelle Reference Center for Bacterial Viruses of Universit´e Laval (http://www.phage.ulaval.ca). Both strains were grown in Trypticase soy broth with agitation at 37◦C. The minimal inhibitory concentration assay was performed as described in [2] and broth microdilution protocol performed in 96-well plates.
(§3) The bacterial strains were grown overnight at 37◦C with aeration and diluted to a ﬁnal concentration of 5× 10^5 cfu/ml in the assay. The peptides were diluted in sterile water and were tested at the following concentrations: 0, 1, 2, 4, 8, 16 and 32µg/ml. The optical density (600nm) was followed every 30 minutes for 24 hours with a Synergy 2 plate reader (BioTek Instruments, Inc.). […]
(§4) 2.Wiegand I, Hilpert K, Hancock RE (2008) Agar and broth dilution methods to determine the minimal inhibitory concentration (mic) of antimicrobial substances. Nature protocols 3: 163–175.

For data set [2], the system named is Escherichia coli K12 MG1655. In kind it is cell-based. The protocol: as §1, §2, §3, §4
The conditions of data set [3]: stated in words as the cause of the weak activity.
Text: We used the proposed approach with the predictor h CAMP to generate a list of K = 1,000 peptide candidates with the highest predicted activity. From this list, we greedily selected three peptides such that they all differed by at least 4 amino acids from each others. This was done to maximize the chemical diversity among them. We then tested these peptides (Peptides #2, #3, #4) in a growth inhibitory assay. […] In a second series, we ensured that a filter for water solubility was employed.
Data set [4] has as its system 24 bacteria such as Escherichia coli, Bacteroïdes fragilis, and Staphylococcus aureus. The note with it: average potency over 24 bacteria; CAMPs training set value; cited from earlier work. The source says:
We observe a smooth power law with only a few peptides having outstanding biological activity, as expected.

The subject of another data set is bradykinin potentiation. The following applies: BPPs training set value; cited from earlier work. The source says: On the BPPs dataset, the proposed approach predicted that the pentapeptide IEWAK should have an activity of 2.195, slightly less than the best peptide of the training set (VEWAK, 2.73, predicted as 2.192). However, the predicted activity of IEWAK is much better than the average peptide activity of the dataset, which is 0.71. One may ask why IEWAK has a lower predicted biological activity than VEWAK, which was part of the training data. It is common for machine learning algorithms to sacrifice accuracy on the training data to prevent overfitting. Despite this small discrepancy, the model is ver ...

[5] abbreviates: S. aureus 68 (HER1049), broth microdilution in 96-well plates, 5×10^5 cfu/ml, peptides in sterile water tested at 0, 1, 2, 4, 8, 16 and 32 µg/ml, OD 600 nm every 30 minutes for 24 hours, 37 °C.
[6] abbreviates: E. coli K12 MG1655, broth microdilution in 96-well plates, 5×10^5 cfu/ml, peptides in sterile water tested at 0, 1, 2, 4, 8, 16 and 32 µg/ml, OD 600 nm every 30 minutes for 24 hours, 37 °C.

For the compound `CC[C@H](C)[C@H](NC(=O)[C@H](CCCNC(=N)N)NC(=O)[C@H](CCCNC(=N)N)NC(=O)[C@H](CC(C)C)NC(=O)[C@H](CCCCN)NC(=O)[C@H](CCCCN)NC(=O)[C@H](Cc1c[nH]c2ccccc12)NC(=O)[C@H](CCCCN)NC(=O)[C@H](CCCCN)NC(=O)[C@H](Cc1c[nH]c2ccccc12)NC(=O)[C@@H](N)Cc1ccc(O)cc1)C(=O)N[C@@H](Cc1ccccc1)C(=O)N[C@@H](CCSC)C(=O)N[C@@H](CC(C)C)C(=O)N[C@H](C(N)=O)C(C)C` [Peptide 1] (H-YWKKWKKLRRIFMLV-NH2; N-terminus assumed), the “MIC (μg/ml) S. aureus” value in data set [1] (68 (HER1049, 24 h)) was 8 µg/mL. Besides, in data set [2] (K12, 24 h), the “MIC (μg/ml) >E. coli” value was found to be 2 µg/mL.

As for `CC[C@H](C)[C@H](NC(=O)[C@H](CCCNC(=N)N)NC(=O)[C@H](CCCNC(=N)N)NC(=O)[C@H](CC(C)C)NC(=O)[C@H](CCCCN)NC(=O)[C@H](CCCCN)NC(=O)[C@H](Cc1c[nH]c2ccccc12)NC(=O)[C@H](CCCNC(=N)N)NC(=O)[C@H](CCCCN)NC(=O)[C@H](Cc1c[nH]c2ccccc12)NC(=O)[C@@H](N)Cc1c[nH]c2ccccc12)C(=O)N[C@@H](Cc1ccccc1)C(=O)N[C@@H](CC(C)C)C(=O)N[C@@H](CCSC)C(=O)N[C@@H](CC(C)C)C(N)=O` [Peptide 2] (H-WWKRWKKLRRIFLML-NH2; N-terminus assumed), the “MIC (μg/ml) S. aureus” value in data set [1] (68 (HER1049, 24 h)) came to 4 µg/mL. In addition, in data set [2] (K12, 24 h), the “MIC (μg/ml) >E. coli” value is 4 µg/mL.

Turning to `CC[C@H](C)[C@H](NC(=O)[C@H](CCCNC(=N)N)NC(=O)[C@H](CCCCN)NC(=O)[C@H](Cc1c[nH]c2ccccc12)NC(=O)[C@H](CCCNC(=N)N)NC(=O)[C@H](CCCCN)NC(=O)[C@H](Cc1c[nH]c2ccccc12)NC(=O)[C@@H](N)Cc1c[nH]c2ccccc12)C(=O)N[C@@H](CCCNC(=N)N)C(=O)N[C@@H](CCCNC(=N)N)C(=O)N[C@H](C(=O)N[C@@H](Cc1ccccc1)C(=O)N[C@@H](CCSC)C(=O)N[C@@H](CCSC)C(=O)N[C@H](C(N)=O)C(C)C)[C@@H](C)CC` [Peptide 3] (H-WWKRWKRIRRIFMMV-NH2; N-terminus assumed), the “MIC (μg/ml) S. aureus” value in data set [1] (68 (HER1049, 24 h)) amounted to 8 µg/mL. Further, the “MIC (μg/ml) >E. coli” value in data set [2] (K12, 24 h) was found to be 4 µg/mL.

As for `CC(C)C[C@H](NC(=O)[C@H](CCCNC(=N)N)NC(=O)[C@H](CCCCN)NC(=O)[C@H](Cc1c[nH]c2ccccc12)NC(=O)[C@H](Cc1c[nH]c2ccccc12)NC(=O)[C@H](CCCCN)NC(=O)[C@H](Cc1c[nH]c2ccccc12)NC(=O)[C@@H](N)Cc1c[nH]c2ccccc12)C(=O)N[C@@H](CCCNC(=N)N)C(=O)N[C@@H](CCCNC(=N)N)C(=O)N[C@@H](CC(C)C)C(=O)N[C@@H](Cc1ccccc1)C(=O)N[C@@H](CC(C)C)C(=O)N[C@@H](CC(C)C)C(=O)N[C@H](C(N)=O)C(C)C` [Peptide 4] (H-WWKWWKRLRRLFLLV-NH2; N-terminus assumed), the “MIC (μg/ml) S. aureus” value in data set [1] (68 (HER1049, 24 h)) was determined as 16 µg/mL. Besides, the “MIC (μg/ml) >E. coli” value in data set [2] (K12, 24 h) is 16 µg/mL. The water solubility result in data set [3] is “poor”.

As to `CC[C@H](C)[C@H](NC(=O)CNC(=O)[C@H](CCCCN)NC(=O)[C@H](Cc1ccccc1)NC(=O)[C@H](CC(C)C)NC(=O)[C@H](CCCCN)NC(=O)[C@H](Cc1c[nH]c2ccccc12)NC(=O)[C@@H](N)CCCCN)C(=O)N[C@@H](CCCNC(=N)N)C(=O)N[C@@H](C)C(=O)N[C@H](C(=O)N[C@@H](CC(C)C)C(=O)N[C@@H](CCCCN)C(=O)N[C@H](C(=O)N[C@@H](CC(C)C)C(N)=O)C(C)C)C(C)C` [Peptide 5, reference compound] (H-KWKLFKGIRAVLKVL-NH2; N-terminus assumed), the “MIC (μg/ml) S. aureus” value in data set [1] (setting [5]) is 8 µg/mL. Besides, the “MIC (μg/ml) >E. coli” value in data set [2] (setting [6]) came to 4 µg/mL.

On to `CC[C@H](C)[C@H](NC(=O)[C@H](CC(C)C)NC(=O)[C@H](CCCNC(=N)N)NC(=O)[C@H](Cc1c[nH]c2ccccc12)NC(=O)CN)C(=O)N[C@@H](CCCCN)C(=O)N[C@@H](CCCCN)C(=O)N[C@H](C(=O)N[C@@H](CC(C)C)C(=O)N[C@@H](CCCNC(=N)N)C(=O)N[C@H](C(=O)N[C@@H](Cc1ccccc1)C(=O)N[C@@H](CCCCN)C(=O)NCC(=O)N[C@@H](CC(C)C)C(N)=O)C(C)C)[C@@H](C)CC` [Peptide 6, reference compound] (H-GWRLIKKILRVFKGL-NH2; N-terminus assumed), for which the “MIC (μg/ml) S. aureus” value in data set [1] (setting [5]) amounted to 4 µg/mL. Further, the “MIC (μg/ml) >E. coli” value in data set [2] (setting [6]) was found to be 4 µg/mL. For the same compound, the “antibacterial activity (logarithm of bactericidal potency)” value in data set [4] is 0.824.

With `CC[C@H](C)[C@H](NC(=O)CNC(=O)[C@H](CC(C)C)NC(=O)[C@H](Cc1ccccc1)NC(=O)[C@H](CC(C)C)NC(=O)[C@H](CCCCN)NC(=O)[C@H](Cc1c[nH]c2ccccc12)NC(=O)[C@@H](N)CCCCN)C(=O)N[C@@H](CC(C)C)C(=O)N[C@@H](C)C(=O)N[C@H](C(=O)N[C@@H](CC(C)C)C(=O)N[C@@H](CCCCN)C(=O)N[C@H](C(=O)N[C@@H](CC(C)C)C(N)=O)C(C)C)C(C)C` [Peptide 7, reference compound] (H-KWKLFLGILAVLKVL-NH2; N-terminus assumed), in data set [1] (setting [5]), the “MIC (μg/ml) S. aureus” value was greater than 32 µg/mL. For the same compound, the “MIC (μg/ml) >E. coli” value in data set [2] (setting [6]) was greater than 32 µg/mL.

As for VEWAK, in the data set on bradykinin potentiation, the “bioactivity (logarithm of the relative activity index compared to the peptide VESSK)” value is 2.73.

These data come from publication PMC4388847, “Machine Learning Assisted Design of Highly Active Peptides for Drug Discovery” (PLoS Computational Biology, 2015).
